{
  "source": "patent US11572590B2",
  "about": "“Methods for evaluating tumor cell spheroids using 3D microfluidic cell culture device” (Dana-Farber Cancer Institute, Inc., priority 2017, dated 2023)",
  "key": {"[1]": {"test_system": "CT26 spheroids (lacking immune cells)", "assay": "Bead-based cytokine profiling of CT26 spheroids lacking immune cells", "assay_type": "cell-based, murine", "conditions": "Day 1, 3, and 6", "description": "Fresh tumor specimens (murine and human patients) were received in media (DMEM) on ice and minced in a 10 cm dish (on ice) using sterile forceps and scalpel. Minced tumor was resuspended in DMEM ([…], […] sodium pyruvate, 1:100 penicillin-streptomycin) (Corning CellGro, Manassas, Va.) +10% FBS (Gemini Bio-Products, West Sacramento, Calif.), 100 U/mL collagenase type IV (Life Technologies, Carlsbad, Calif.), and 15 mM HEPES (Life Technologies, Carlsbad, Calif.), except for CT26 tumors that were prepared in RPMI. Samples were pelleted and resuspended in 10-20 mL media. Red blood cells were removed from visibly bloody samples using RBC Lysis Buffer (Boston Bio-Products, Ashland, Mass.). […]\nTwo multiplex assays were performed utilizing a bead-based immunoassay approach, the Bio-Plex Pro™ Human Cytokine 40-plex Assay (Cat #171AK99MR2) and Bio-Plex Pro™ Mouse Cytokine Panel 1, 23-plex (Cat #M60009RDPD) on a Bio-plex 200 system (Cat #171000201). […] Fold changes relative to the MDOT/PDOT control were calculated and plotted as log 2FC. Lower and upper limits of quantitation (LLOQ/ULOQ) were imputed from standard curves for cytokines above or below detection. […]"}, "[2]": {"test_system": "human CD4+ and CD8+ T cells", "assay": "IL-2 secretion by anti-CD3/anti-CD28 stimulated T cells", "assay_type": "cell-based", "conditions": "dose-titration, 24 hours", "description": "Freshly isolated human CD4+ and CD8+ T cells were obtained from AllCells (Alameda, Calif., USA). Cells were spun down and resuspended in serum free Xvivo15 media (Lonza Walkersville, Inc., Chicago, Ill., USA) supplemented with 5 ng/mL […] and incubated overnight at 37° C. Cells were plated on anti-CD3 coated plates (5 μg/mL OKT3, eBioscience, Dallas, Tex., USA, overnight) with 2 μg/mL anti-CD28 (eBioscience, Dallas, Tex., USA). Cells are treated in replicate plates with a dose-titration of Compound 1 for 24 hours for IL-2 and 96 hours for IFNγ. IL-2 and IFNγ in the supernatant were measured using single- or multi-plex immunoassay (Mesoscale Discovery, Rockville, Md., USA). Jurkat T cell leukemia cells (clone E61 obtained from ATCC) plated on anti-CD3 coated plates were treated with a dose titration of Compound 1 for 24 hours. IL-2 in the supernatant was measured as described above."}, "off-target kinases": {"target": "off-target kinases (Homo sapiens, UniProt Q96SB4)", "sequence (Q96SB4 whole entry)": "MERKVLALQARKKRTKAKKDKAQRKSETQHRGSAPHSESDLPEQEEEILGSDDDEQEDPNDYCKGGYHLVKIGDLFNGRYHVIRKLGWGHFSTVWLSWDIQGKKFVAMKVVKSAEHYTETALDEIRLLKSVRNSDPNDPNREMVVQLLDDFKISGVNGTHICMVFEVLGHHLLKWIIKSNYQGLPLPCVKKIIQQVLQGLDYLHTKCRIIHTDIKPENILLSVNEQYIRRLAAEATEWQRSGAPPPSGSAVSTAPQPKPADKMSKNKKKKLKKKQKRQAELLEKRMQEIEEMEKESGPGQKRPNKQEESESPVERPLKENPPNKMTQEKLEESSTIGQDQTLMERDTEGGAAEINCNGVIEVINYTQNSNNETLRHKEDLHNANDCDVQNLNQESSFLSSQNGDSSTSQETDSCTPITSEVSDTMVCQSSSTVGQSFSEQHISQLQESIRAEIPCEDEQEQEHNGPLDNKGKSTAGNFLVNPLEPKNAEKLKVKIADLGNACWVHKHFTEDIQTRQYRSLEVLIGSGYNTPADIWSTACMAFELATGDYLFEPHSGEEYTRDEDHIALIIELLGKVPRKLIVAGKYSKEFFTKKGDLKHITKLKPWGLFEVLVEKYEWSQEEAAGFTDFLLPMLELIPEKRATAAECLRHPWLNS", "assay": "SelectScreen Kinase Profiling, single point inhibition and IC50 for off-target kinases", "assay_type": "biochemical", "conditions": "SRPK1, ZLYTE, ATP Km app", "description": "Biochemical single point inhibition and IC50 concentrations for TBK1, IKKε (IKBKE), and off-target kinases were determined at ThermoFisher Scientific using SelectScreen Kinase Profiling Services (Madison, Wis., USA) (Tables S4A and S4B-1-7). To determine cellular potency, the human colorectal cancer carcinoma cell line HCT116 (ATCC, Manassas, Va.) was maintained in T175 flasks in complete RPMI medium; RPMI 1640 supplemented with 10% FBS, 1× Penicillin-Streptomycin solution and 1×MEM (non-essential amino acids). HCT116 cells were grown to 90-95% confluency in T175 flasks containing complete RPMI medium and transfected in bulk using Lipofectamine 2000 (Invitrogen, Carlsbad, Calif.) with 70 μg of ISG54-luciferase reporter plasmid (Elim Biopharmaceuticals Inc., Hayward, Calif.). The reporter plasmid contains a luciferase gene expression cassette under the transcriptional regulation of the promoter of the human interferon stimulated gene 54 (ISG54). Transfection of the cells was allowed to take place for 6 hours, after which the cells were harvested by treatment with 0.25% trypsin EDTA (Corning Inc., Corning, N.Y.). Trypsinized cells were added to 384-well poly-d-lysine treated black clear bottom tissue culture assay plates (Greiner Bio-One GmbH, Kremsmünster, Austria) at a density of 20,000 cells/well in 80 μL of complete RPMI medium and incubated overnight. After 16-18 hours post-transfection, the assay plates were washed with PBS (Corning Inc., Corning, N.Y.), followed by addition of 80 μL/well of serum-free RPMI 1640 medium containing 1× Penicillin-Streptomycin solution, 1×MEM and 350 nL of DMSO or titrations of Compound 1. Compound 1 titrations were generated by 1.5-fold dilution steps in two overlapping serial dilution series to generate a 40-point compound dose range. After incubation at 37° C. for 1 hour, the cells were stimulated with Poly(I:C) (InvivoGen, San Diego, Calif.) at a final concentration of 15 μg/mL in Optimem media (Life Technologies, Rockville, Md.). The assay plates were incubated for 5 hours at 37° C., followed by addition of One-Glo luciferase firefly reagent (Promega, Madison, Wis.) at 1:1 volume/well and luminescence was measured in an EnVision Multilabel Plate Reader (PerkinElmer, Santa Clara, Calif.). The EC50 values were calculated from the fit of the dose-response curves to a four-parameter equation. All EC50 values represent geometric mean values of a minimum of four determinations."}},
  "note": "Like-named read-outs stand apart in the source and are kept apart here.",
  "data": [
    {"smiles": "N#Cc1cc(-c2ncnc(Nc3ccc(N4CCN(C5COC5)CC4)cc3)n2)ccc1OC1CCOCC1", "note": "[Compound 1, 5-(4-((4-(4-(oxetan-3-yl)piperazin-1-yl)phenyl)amino)-1,3,5-triazin-2-yl)-2-((tetrahydro-2H-pyran-4-yl)oxy)benzonitrile]", "values": [
      {"measurement": "immune suppressive cytokine elaboration by CT26 cell line spheroids", "setting": "[1]", "value": "effectively blocked"},
      {"measurement": "secretion of IL-2 from purified CD4+ and CD8+ T cells", "setting": "[2]", "value": "enhanced secretion"},
      {"measurement": "inhibition", "setting": "off-target kinases; read-out: % Inhibition 1", "value": -1, "unit": "%"},
      {"measurement": "inhibition", "setting": "off-target kinases; read-out: % Inhibition 2", "value": -2, "unit": "%"},
      {"measurement": "inhibition", "setting": "off-target kinases; read-out: % Inhibition Avg", "value": -2, "unit": "%"}
    ]}
  ]
}
